Values of other authors in patent US20230372318A1, “METHODS FOR TREATING A SUBJECT HAVING MULTIPLE SYSTEM ATROPHY” (Theravance Biopharma R&D IP, LLC, priority 2022, published 2023).
Read-outs that look alike come from different tables or passages of the source.

Experiments:
[1] = tested on: patients with central autonomic failure; settings: cited from earlier work
[2] = tested on: nOH in MSA patients and non-MSA patients; settings: cited from earlier work
[3] = tested on: adult patients with symptomatic nOH; settings: prescribing information, black box warning; cited from earlier work

| Compound | Effect on blood pressure [1] | Effect against nOH ([2]; MSA patients) | Effect against nOH ([2]; non-MSA patients) | Main side effect [3] |
| --- | --- | --- | --- | --- |
| CNCC[C@@H](Oc1ccccc1C)c1ccccc1 [Atomoxetine] | increase blood pressure | ineffective | showing improvement | – |
| N[C@H](C(=O)O)[C@H](O)c1ccc(O)c(O)c1 [droxidopa, L-threo-3-4-dihydroxyphenylserine] | – | – | – | supine hypertension |
